This is an account of results in patent US11541065B2, “Compositions and methods for treating brain injury” (UNM RAINFOREST INNOVATIONS, priority 2018, dated 2023).

Structures are written as SMILES.

One series relates to MCP-1. Description: MCP-1 level in ischemic brain (ELISA). Type of series: in vivo, Wistar rats. Conditions: HHcy rats, MCAO 60 minutes, six hours of reperfusion, NVP-AAM077 1.2 mg/kg intravenous at onset of insult. As for the experimental part: Wistar rats were made hyperhomocysteinemic using osmotic pump containing L-homocysteine. Animals were hyperhomocysteinemic (19-23 μM) within three days of pump implantation. Ischemic stroke was induced by MCAO for 60 minutes followed by reperfusion for six hours. Tissue punches from the ipsilateral striatum and cortex were lysed in ice-cold Phosphate buffered saline (pH 7.4) containing phosphatase inhibitor, sonicated three times in five-second bursts and placed on ice (two minutes) between each burst of sonication. The lysed cell suspensions were centrifuged at 10,000 rpm (10 minutes) and the supernatant was collected in another tube. Equal amounts of protein from the supernatant were processed for PGE2 and MCP-1 levels using respective ELISA kit.
(In general: ELISA stands for enzyme-linked immunosorbent assay.)

In a further series the test system is COX2. Description: COX2 protein level in WT and GluN2A-KO mouse neuronal cultures (immunoblot). Type of series: cell-based, mice. Conditions: L-homocysteine 50 μM, four hours. The protocol:
Equal protein from total cell lysates obtained from rat and mice neuronal cultures were resolved in 7.5% SDS-PAGE, and subjected to immunoblotting procedure as described earlier (Poddar and Paul, 2009, J Neurochem 110:1095-1106). Blots were analyzed with antibodies as described in each experiment. All primary antibodies (anti-COX2, anti-B-tubulin) and secondary-horse radish peroxidase conjugated antibody concentrations were used according to recommendations provided by the manufacturer. Signals from immune complexes in the blots were developed using West Pico supersignal chemiluminescence reagents and then captured on X-ray films. Densitometric analysis of the images was performed using the Image J software.
Rat and mice neuronal cultures were washed with PBS (pH 7.4), containing sodium pyrophosphate and sodium vanadate as phosphatase inhibitors, and harvested in SDS sample buffer (Laemmli, 1970, Nature 227:680-685). Equal protein from total cell lysates, estimated using BCA kit, was resolved by SDS-PAGE (7.5%) followed by western blotting on PVDF membranes. Immunoblot analysis was performed by first blocking with 5% non-fat dry milk for 1 h at room temperature followed by incubation with either COX2 immunoblot analysis (Poddar and Paul, 2009, J Neurochem 110:1095-1106) as described in each experiment. […]

The subject of a further series is cPLA2. Description: cPLA2 activity in WT and GluN2A-KO mouse neuronal lysates. As to conditions: L-homocysteine 50 μM, four hours. Type of series: cell-based, mice. The protocol: Neuron cultures were treated with or without L-homocysteine in the presence or absence of pharmacological inhibitors for the time period specified in each experiment. The medium was collected from each experimental plate and centrifuged at 1000 rpm for five minutes to remove cellular debris. Equal amounts (100 μl) of the supernatant from each sample were used to determine the amount of PGE2 using the PGE2 enzyme immunoassay kit according to the manufacturer's instructions. For measurement of cPLA2 activity, the neuronal cells from the above treated conditions were harvested in ice-cold Tris-buffered saline (pH7.4) containing sodium pyrophosphate as phosphatase inhibitor, sonicated three times with five-second bursts and two minutes on ice between intervals. The lysed cell suspensions were centrifuged at 10,000 rpm for 10 minutes and the supernatant removed. Equal amounts of protein from the supernatant (assessed using BCA protein estimation kit) were estimated for activity of cPLA2 using cPLA2 activity assay kit according to the manufacturer's protocol.
For measurement of cPLA2 activity and MCP-1 levels in cell lysates, neuronal lysates were prepared by harvesting neurons in ice-cold Tris-buffered saline (pH 7.4) containing phosphatase inhibitor, sonicated three times in five-second bursts and placed on ice (two minutes) between each burst of sonication. […]

Series [1] is described as follows: Total plasma homocysteine after osmotic pump implantation, mice (HPLC). Conditions: mouse, subcutaneous, 200 mM solution (200 μl osmotic pump, flow rate 1 μl/hr), osmotic pump with 200 mM L-homocysteine; for concentration at 5 day: day 5. Type of series: in vivo, WT and GluN2A-KO mice. As for the experimental part:
L-homocysteine (200 mM) was freshly prepared by alkali hydrolysis of L-homocysteine thiolactone hydrochloride followed by neutralization, and maintained in 0.02 mM of N-Tris(hydroxymethyl)methyl-2-aminoethanesulfonic acid buffer pH 7.4 as previously described (Poddar et al., 2001, Circulation, 103:2717-2723). Osmotic pumps (Alzet, 2ML1, flow rate 10 μl/hr; Durect Corp., Cupertino, Calif.) containing either 2 ml of freshly prepared 200 mM L-homocysteine (for hyperhomocysteinemia) or normal saline (for control) were surgically implanted subcutaneously on the back and posterior to the scapulae of male Wistar rats under anesthesia (2% isoflurane in medical grade oxygen). The incision was closed after implantation and the rats were allowed to recover in their cage. For both WT and GluN2A-KO mice, osmotic pumps (Alzet, 2001, flow rate 1 μl/hr; Durect Corp., Cupertino, Calif.) containing either 200 μl of freshly prepared 200 mM L-homocysteine (for hyperhomocysteinemia) or normal saline (for control) were implanted similarly.
Blood was obtained from rats (retro-orbital) and mice (cardiac puncture) under anesthesia with 2% isoflurane in medical grade oxygen, before installation of osmotic pumps (0 day) and at various time points after installation of osmotic pumps (rats: day 3, day 5, and day 7; mice: day 3 and day 5). Blood was collected in standardized VACUTAINER venous blood collection EDTA-tubes (ThermoFisher Scientific, Inc., Waltham, Mass.) and centrifuged at 3,500 rpm for 15 minutes. The plasma obtained was analyzed for total plasma homocysteine levels using high performance liquid chromatography with post-column fluorescence detection as previously described (Gilfix et al., 1997, Clin Chem 43:687-688; Jacobsen et al., 1994, Clin Chem 40:873-881; Miller et al., 2013, Am J Clin Nutr 97:827-834).

Turning to `C[C@H](NC(c1cccc2[nH]c(=O)c(=O)[nH]c12)P(=O)(O)O)c1ccc(Br)cc1` (stereo partly drawn) [NVP-AAM077, ({[(1S)-1-(4-bromophenyl)ethyl]amino}-(2,3-dioxo-1,4-dihydroquinoxalin-5-yl)methyl)phosphonic acid], the “MCP-1 level in ischemic hemisphere (cortex and striatum)” value in the series on MCP-1 is “attenuated the increase in the level of both PGE2 and MCP-1”.

`N[C@@H](CCS)C(=O)O` [L-homocysteine]: the COX2 protein level entry in the series on COX2 (GluN2A-KO mice cultures) was “fails to augment COX2 protein expression”; in the series on COX2 (WT mice cultures), “leads to increase in COX2 protein level”. Moreover, the cPLA2 activity entry in the series with cPLA2 (neurons from GluN2A-KO mice) is “cPLA2 activity remain unchanged”; in the series on cPLA2 (neurons from WT mice) it was “cPLA2 activity increase significantly”. The concentration at 3 day in series [1] (GluN2A-KO mice, day 3, day 0 5.72±0.33 μM) is 18.5 ± 2.55 µM; in series [1] (WT mice, day 3, day 0 6.6±0.73 μM), 19 ± 1.68 µM. Further, the concentration at 5 day in series [1] (GluN2A-KO mice) was 15.9 ± 2.09 µM; in series [1] (WT mice), 16.7 ± 1.73 µM.
